# From patent US8288548B2, “Oxazolo[5-4-b]pyridin-5-yl compounds” (Eli Lilly and Company, priority 2010, dated 2012)
# Tests used:
# human p38α MAP kinase = human p38α MAP kinase (Homo sapiens, UniProt Q16539); assay: Inhibition of p38α MAP kinase enzyme activity (33P-ATP filter assay); assay type: biochemical; details: 100 μM ATP, 11.8 nM p38α MAP kinase
# Method: The kinase reaction buffer is prepared as a stock solution containing 1440 μL of 1 M 4-(2-hydroxyethyl)-1-piperazineethanesulfonic acid (HEPES) pH 7.5, 240 μL of 1 M MgCl2, 72 μL of 1 M dithiothreitol (DTT), 25 μL of 10% TRITON® X-100, 43223 μL of H2O. The substrate mix is prepared by combining the following: 2775 μL kinase reaction buffer, 75.0 μL adenosine triphosphate (ATP) at 10 mM, 270 μL EGFR peptide (Upstate Biotechnology/Millipore) at 4 mM (9.17 mg/mL) and 12.5 μL ^33P-ATP. The p38 MAP kinase enzyme stock solution is prepared by diluting 0.1 mg/mL solution of purified human p38α MAP kinase in 3000 μL of reaction buffer. Stock solutions of test compounds are generated by dissolving the compounds in 100% dimethyl sulfoxide (DMSO) at 10 mM. 100 μM stock dilution plates are generated by diluting 2 μL of 10 mM stock in 198 μL of 20% DMSO. 1:3 dilutions in 20% DMSO are generated from the 100 μM stock using a Tecan liquid handler.
# For the kinase assay, 5 μL of diluted compound is transferred to the reaction plate, followed by 10 μL of enzyme stock solution (added using a MULTIDROP® liquid dispenser). […] Following the washing steps, 80 μL of MICROSCINT™20 is added and the radioactivity counted in a Trilux MICROBETA®. IC50 values are calculated using Activity Base software (IDBS).
# p38β MAP kinase = molecular target: T1, p38β MAP kinase (Homo sapiens, UniProt Q15759); assay: Inhibition of p38β MAP kinase enzyme activity; assay type: biochemical; details: 20 μM ATP
# T1 construct: purchased Upstate Biotechnology/Millipore
# Method: The kinase reaction buffer is prepared essentially as described above. The substrate mix is prepared by combining the following: 2840 μL Kinase Reaction Buffer, 15.0 μL ATP at 10 mM, 125 μL EGFR peptide at 4 mM (9.174 mg/ml), 18.75 μL ^33P-ATP. The p38β MAP kinase enzyme stock solution is prepared by diluting 2.25 μL of a 0.57 mg/mL solution of commercial p38β MAP kinase (Upstate Biotechnology/Millipore) in 2000 μL of reaction buffer. Stock solutions of test compounds are generated essentially as described above.
# The kinase assay is performed essentially as described for p38α MAP kinase. Final reaction conditions are as follows: 25 mM HEPES pH 7.5, 4.25 mM MgCl2, 1.30 mM DTT, 0.004% TRITON® X-100, 20 μM ATP, 65 μM EGFR peptide, 0.25 ng/μL p38β MAP kinase, 4% DMSO. […] For example, Example 1 has an IC50=0.007 μM.
# Sequence of human p38α MAP kinase (Q16539 whole entry): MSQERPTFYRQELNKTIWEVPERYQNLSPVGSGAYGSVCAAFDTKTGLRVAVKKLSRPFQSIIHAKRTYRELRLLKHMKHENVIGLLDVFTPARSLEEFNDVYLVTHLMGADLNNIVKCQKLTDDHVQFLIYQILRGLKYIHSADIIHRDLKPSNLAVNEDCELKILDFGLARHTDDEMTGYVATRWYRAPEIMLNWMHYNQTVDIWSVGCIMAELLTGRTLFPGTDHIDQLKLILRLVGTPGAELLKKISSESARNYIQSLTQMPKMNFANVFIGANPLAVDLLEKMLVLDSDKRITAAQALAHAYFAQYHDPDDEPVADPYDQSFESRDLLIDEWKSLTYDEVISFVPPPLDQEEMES
# T1 sequence (Q15759 whole entry): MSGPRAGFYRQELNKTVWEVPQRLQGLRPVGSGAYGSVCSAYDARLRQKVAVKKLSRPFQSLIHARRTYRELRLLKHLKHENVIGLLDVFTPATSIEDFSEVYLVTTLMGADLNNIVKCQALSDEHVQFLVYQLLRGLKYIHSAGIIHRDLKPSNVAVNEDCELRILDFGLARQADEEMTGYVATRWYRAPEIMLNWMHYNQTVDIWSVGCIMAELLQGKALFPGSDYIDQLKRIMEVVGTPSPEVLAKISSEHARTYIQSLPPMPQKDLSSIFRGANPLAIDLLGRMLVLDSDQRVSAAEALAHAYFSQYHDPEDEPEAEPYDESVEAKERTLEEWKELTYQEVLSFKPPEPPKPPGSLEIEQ
smiles,measurement,setting,value
"COCC[C@H](C)Nc1nc2ccc(-c3nc(C(C)(C)CO)[nH]c3-c3ccc(F)cc3F)nc2o1 [Example 1, 2-[5-(2,4-Difluorophenyl)-4-[2-[[(1S)-3-methoxy-1-methyl-propyl]amino]oxazolo[5,4-b]pyridin-5-yl]-1H-imidazol-2-yl]-2-methyl-propan-1-ol]",IC50,human p38α MAP kinase,3 nM
same,IC50,p38β MAP kinase,7 nM
